This passage reports GI50 results from patent US20260109707A1, “HETEROBIFUNCTIONAL COMPOUNDS AND METHODS OF TREATING DISEASE” (Halda Therapeutics OpCo. Inc., priority 2022, published 2026).

By GI50 is commonly meant the concentration giving 50% growth inhibition. A low value points to more potent growth inhibition.

In one test the test system is VCaP cells. Description: Cellular growth inhibition assay for VCaP cells (CellTiter-Glo, 72 hours). The class given is cell-based, human. The conditions noted are these: Homo sapiens, VCaP, 72 h. The essentials: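 Luminescent viability signal after 72 h of compound exposure gave GI50 values by four-parameter nonlinear regression. Compounds were added in 0.5% DMSO to cells plated 24 h earlier at 5000/well in DMEM containing 10% FBS.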
For orientation: ATP-based viability assays read luminescence as a measure of living cells.

Test [1] concerns T-Rex 293 cell line SC3 cells having increased expression of androgen receptor protein due to exposure to doxycycline. Description: Cellular growth inhibition assay, T-Rex 293 SC3 cells with doxycycline (CellTiter-Glo, 72 hours). The class given is cell-based. The settings on record: 72 h, T-Rex 293 SC3 cells with increased androgen receptor expression due to doxycycline (10 ng/mL). The essentials: (§1)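 Doxycycline (10 ng/mL) was either included or omitted to toggle wild-type androgen receptor expression in SC3 cells, a T-Rex 293 clone, grown in stripped-serum, phenol red-free medium. After 72 hours with compound, viable cells were quantified by CellTiter-Glo 2.0.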

Test [2] relates to T-Rex 293 cell line SC3 cells lacking increased expression of androgen receptor protein. Description: Cellular growth inhibition assay, T-Rex 293 SC3 cells without doxycycline (CellTiter-Glo, 72 hours). The conditions noted are these: 72 h, T-Rex 293 cell line SC3 cells not exposed to doxycycline (lacking increased androgen receptor expression). The class given is cell-based. The essentials:
as §1

The next test relates to T47D cells. Kind of test: Cellular growth inhibition assay for T47D cells (CellTiter-Glo, 72 hours). The conditions noted are these: Homo sapiens, T47D, 72 h, 72 hours treatment. The class given is cell-based, human. In outline: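 Growth inhibition as GI50, fitted with four parameters to CellTiter-Glo luminescence after 72 h of compound exposure (0.5% DMSO). Cells were T47D, grown in insulin-supplemented (0.2 units/mL) DMEM with 10% FBS and treated one day post-seeding.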

In the case of `Cc1sc2c(c1C)C(c1ccc(OC3CC4(CCN(c5ccc(C(=O)N[C@H]6CC[C@H](Oc7ccc(C#N)c(Cl)c7)CC6)nn5)CC4)C3)cc1)=N[C@@H](CC(C)(C)O)c1nnc(C)n1-2` [I-245], the GI50 is under 500 nM with VCaP cells, under 500 nM in test [1], over 3000 nM in test [2] and over 3000 nM in the test with T47D cells.
As for `Cc1sc2c(c1C)C(c1ccc(O[C@H]3C[C@@H](N(C(C)C)C4CCN(c5ccc(C(=O)N[C@H]6CC[C@H](Oc7ccc(C#N)c(Cl)c7)CC6)nn5)CC4)C3)cc1)=N[C@@H](Cc1ncco1)c1nnc(C)n1-2` [I-246], the GI50 (in the test with VCaP cells; in test [1]; in test [2]; in the test on T47D cells) was under 500 nM throughout.
On to `Cc1sc2c(c1C)C(c1ccc(OC3CC4(CCCN(c5ccc(C(=O)N[C@H]6CC[C@H](Oc7ccc(C#N)c(Cl)c7)CC6)nn5)C4)C3)nc1)=N[C@@H](Cc1ncco1)c1nnc(C)n1-2` (some centres unmarked) [I-247], for which the GI50 (in the test on VCaP cells; in test [1]; in test [2]; in the test with T47D cells) was under 500 nM each time.
In the case of `Cc1sc2c(c1C)C(c1ccc(NCC(=O)N3CCC(c4ccc(C(=O)N[C@H]5CC[C@H](Oc6ccc(C#N)c(Cl)c6)CC5)nn4)CC3)cc1)=N[C@H](Cc1ncco1)c1nnc(C)n1-2` [I-248], the GI50 in the test on VCaP cells was under 500 nM; in test [1], under 500 nM; in test [2], 500 to 1500 nM; with T47D cells, under 500 nM.
Turning to `Cc1sc2c(c1C)C(c1ccc(CCC(=O)N3CCN(c4ccc(C(=O)N[C@H]5CC[C@H](Oc6ccc(C#N)c(Cl)c6)CC5)nn4)CC3)cc1)=N[C@@H](Cc1ncco1)c1nnc(C)n1-2` [I-249], the GI50 is under 500 nM with VCaP cells, under 500 nM in test [1], 500 to 1500 nM in test [2] and under 500 nM in the test with T47D cells.
With `Cc1sc2c(c1C)C(c1ccc(N3CCN(C(=O)c4ccc(C(=O)N[C@H]5CC[C@H](Oc6ccc(C#N)c(Cl)c6)CC5)nn4)CC3)cc1)=N[C@@H](Cc1ncco1)c1nnc(C)n1-2` [I-250], the GI50 with VCaP cells was over 3000 nM; in test [1], under 500 nM; in test [2], over 3000 nM; with T47D cells, 500 to 1500 nM.
For `Cc1sc2c(c1C)C(c1ccc(N3CCN(C(=O)c4ccc(C(=O)N[C@H]5CC[C@H](Oc6ccc(C#N)c(Cl)c6)CC5)nn4)CC3)cc1)=N[C@H](Cc1ncco1)c1nnc(C)n1-2` [I-251], the GI50 with VCaP cells is under 500 nM; in test [1] it was under 500 nM; in test [2], 500 to 1500 nM; in the test with T47D cells it was under 500 nM.
Consider `Cc1sc2c(c1C)C(c1ccc(C[C@@H]3CCCN(c4ccc(C(=O)N[C@H]5CC[C@H](Oc6ccc(C#N)c(Cl)c6)CC5)nn4)C3)cc1)=N[C@@H](Cc1ncco1)c1nnc(C)n1-2` [I-252], for which the GI50 (with VCaP cells; in test [1]; in test [2]; with T47D cells) was under 500 nM in each case.
As for `Cc1sc2c(c1C)C(c1ccc(C[C@H]3CCCN(c4ccc(C(=O)N[C@H]5CC[C@H](Oc6ccc(C#N)c(Cl)c6)CC5)nn4)C3)cc1)=N[C@@H](Cc1ncco1)c1nnc(C)n1-2` [I-253], the GI50 (in the test on VCaP cells; in test [1]; in test [2]; in the test with T47D cells) was under 500 nM each time.
For `Cc1sc2c(c1C)C(c1ccc(CC[C@H]3CCCN(c4ccc(C(=O)N[C@H]5CC[C@H](Oc6ccc(C#N)c(Cl)c6)CC5)nn4)C3)cc1)=N[C@@H](Cc1ncco1)c1nnc(C)n1-2` [I-254], the GI50 (in the test with VCaP cells; in test [1]; in test [2]; in the test on T47D cells) was under 500 nM throughout.
For the compound `Cc1sc2c(c1C)C(c1ccc(CC[C@@H]3CCCN(c4ccc(C(=O)N[C@H]5CC[C@H](Oc6ccc(C#N)c(Cl)c6)CC5)nn4)C3)cc1)=N[C@@H](Cc1ncco1)c1nnc(C)n1-2` [I-255], the GI50 was under 500 nM in the test with VCaP cells, under 500 nM in test [1], under 500 nM in test [2] and 500 to 1500 nM with T47D cells.
Turning to `Cc1sc2c(c1C)C(c1ccc(OCC[C@@H]3CCCN(c4ccc(C(=O)N[C@H]5CC[C@H](Oc6ccc(C#N)c(Cl)c6)CC5)nn4)C3)cc1)=N[C@@H](Cc1ncco1)c1nnc(C)n1-2` [I-256], the GI50 (with VCaP cells; in test [1]; in test [2]; in the test with T47D cells) was under 500 nM each time.
For the compound `Cc1sc2c(c1C)C(c1ccc(OCC[C@H]3CCCN(c4ccc(C(=O)N[C@H]5CC[C@H](Oc6ccc(C#N)c(Cl)c6)CC5)nn4)C3)cc1)=N[C@@H](Cc1ncco1)c1nnc(C)n1-2` [I-257], the GI50 (in the test on VCaP cells; in test [1]; in test [2]; in the test with T47D cells) was under 500 nM each time.
Regarding `Cc1sc2c(c1C)C(c1ccc(C[C@H]3CCC4CN(c5ccc(C(=O)N[C@H]6CC[C@H](Oc7ccc(C#N)c(Cl)c7)CC6)nn5)CCN4C3)cc1)=N[C@H](Cc1ncco1)c1nnc(C)n1-2` (some centres unmarked) [I-260], the GI50 (in the test on VCaP cells; in test [1]; in test [2]; in the test with T47D cells) was under 500 nM throughout.
On to `Cc1sc2c(c1C)C(c1ccc(O[C@H]3C[C@@]4(CCCN(c5ccc(C(=O)N[C@H]6CC[C@H](Oc7ccc(C#N)c(Cl)c7)CC6)nn5)C4)C3)cn1)=N[C@@H](Cc1ncco1)c1nnc(C)n1-2` [I-261], for which the GI50 (in the test on VCaP cells; in test [1]; in test [2]; in the test with T47D cells) was under 500 nM throughout.
`Cc1sc2c(c1C)C(c1ccc(OC[C@H]3C[C@]4(CCCN(c5ccc(C(=O)N[C@H]6CC[C@H](Oc7ccc(C#N)c(Cl)c7)CC6)nn5)C4)C3)nc1)=N[C@@H](Cc1ncco1)c1nnc(C)n1-2` [I-262]: the GI50 in the test on VCaP cells was under 500 nM; in test [1], under 500 nM; in test [2], over 3000 nM; in the test on T47D cells, under 500 nM.
Turning to `Cc1sc2c(c1C)C(c1ccc(OC[C@H]3C[C@@]4(CCCN(c5ccc(C(=O)N[C@H]6CC[C@H](Oc7ccc(C#N)c(Cl)c7)CC6)nn5)C4)C3)nc1)=N[C@@H](Cc1ncco1)c1nnc(C)n1-2` [I-263], the GI50 in the test on VCaP cells is under 500 nM; in test [1], under 500 nM; in test [2] it was over 3000 nM; with T47D cells it was 500 to 1500 nM.
Take `Cc1sc2c(c1C)C(c1ccc(C[C@H]3CC[C@]4(C3)CN(c3ccc(C(=O)N[C@H]5CC[C@H](Oc6ccc(C#N)c(Cl)c6)CC5)nn3)CCO4)cc1)=N[C@@H](Cc1ncco1)c1nnc(C)n1-2` [I-266]: the GI50 (in the test with VCaP cells; in test [1]; in test [2]; with T47D cells) was under 500 nM throughout.
Consider `Cc1sc2c(c1C)C(c1ccc(C[C@H]3CC[C@@]4(C3)CN(c3ccc(C(=O)N[C@H]5CC[C@H](Oc6ccc(C#N)c(Cl)c6)CC5)nn3)CCO4)cc1)=N[C@@H](Cc1ncco1)c1nnc(C)n1-2` [I-267], for which the GI50 (in the test with VCaP cells; in test [1]; in test [2]; in the test on T47D cells) was under 500 nM each time.
Turning to `Cc1sc2c(c1C)C(c1ccc(C(=O)N3CC[C@]4(CCCN(c5ccc(C(=O)N[C@H]6CC[C@H](Oc7ccc(C#N)c(Cl)c7)CC6)nn5)C4)C3)cc1)=N[C@H](Cc1ncco1)c1nnc(C)n1-2` [I-272], the GI50 in the test with VCaP cells is 1500 to 3000 nM; in test [1] it was under 500 nM; in test [2], over 3000 nM; in the test on T47D cells, 1500 to 3000 nM.
Consider `Cc1sc2c(c1C)C(c1ccc(C(=O)N3CCC[C@@H](Cc4ccc(C(=O)N[C@H]5CC[C@H](Oc6ccc(C#N)c(Cl)c6)CC5)nn4)C3)cc1)=N[C@H](Cc1ncco1)c1nnc(C)n1-2` [I-275], for which the GI50 is over 3000 nM with VCaP cells, under 500 nM in test [1], over 3000 nM in test [2] and over 3000 nM with T47D cells.
As for `Cc1sc2c(c1C)C(c1ccc(CCC[C@@H]3CCCN(c4ccc(C(=O)N[C@H]5CC[C@H](Oc6ccc(C#N)c(Cl)c6)CC5)nn4)C3)cc1)=N[C@@H](Cc1ncco1)c1nnc(C)n1-2` [I-276], the GI50 (in the test with VCaP cells; in test [1]; in test [2]; in the test with T47D cells) was under 500 nM each time.
For the compound `Cc1sc2c(c1C)C(c1ccc(CCC[C@H]3CCCN(c4ccc(C(=O)N[C@H]5CC[C@H](Oc6ccc(C#N)c(Cl)c6)CC5)nn4)C3)cc1)=N[C@@H](Cc1ncco1)c1nnc(C)n1-2` [I-277], the GI50 (in the test with VCaP cells; in test [1]; in test [2]; in the test with T47D cells) was under 500 nM each time.
For `Cc1sc2c(c1C)C(c1ccc(CCO[C@@H]3CCCN(c4ccc(C(=O)N[C@H]5CC[C@H](Oc6ccc(C#N)c(Cl)c6)CC5)nn4)C3)cc1)=N[C@@H](Cc1ncco1)c1nnc(C)n1-2` [I-278], the GI50 in the test on VCaP cells is under 500 nM; in test [1], under 500 nM; in test [2], over 3000 nM; with T47D cells, under 500 nM.
With `Cc1sc2c(c1C)C(c1ccc(CCO[C@H]3CCCN(c4ccc(C(=O)N[C@H]5CC[C@H](Oc6ccc(C#N)c(Cl)c6)CC5)nn4)C3)cc1)=N[C@@H](Cc1ncco1)c1nnc(C)n1-2` [I-279], the GI50 in the test with VCaP cells was under 500 nM; in test [1], under 500 nM; in test [2], under 500 nM; in the test on T47D cells, 500 to 1500 nM.
Consider `Cc1sc2c(c1C)C(c1ccc(C#CC3CC4(C3)CN(c3ccc(C(=O)N[C@H]5CC[C@H](Oc6ccc(C#N)c(Cl)c6)CC5)nn3)C4)cn1)=N[C@H](Cc1ncco1)c1nnc(C)n1-2` [I-281], for which the GI50 (in the test with VCaP cells; in test [1]; in test [2]; in the test with T47D cells) was under 500 nM in each case.
